The source of these data is US20230121313A1 (priority 2019, published 2023).

Data set [1] has as its system elderly subjects with TRD. Put plainly: MADRS total score, Study […]3005 (change, response, remission). The class given is in vivo, human. The procedure: The primary objective of this study was to evaluate the efficacy of switching elderly subjects with treatment-resistant depression (TRD) from a prior antidepressant treatment (to which they have not responded) to flexibly dosed intranasal esketamine (28 mg, 56 mg or 84 mg) plus a newly initiated oral antidepressant compared with switching to a newly initiated oral antidepressant plus intranasal placebo, in improving depressive symptoms, as assessed by the change from baseline in the Montgomery-Asberg Depression Rating Scale (MADRS) total score from Day 1 (pre-randomization) to the end of the 4-week double-blind induction phase.
Primary Efficacy Evaluation: The primary efficacy evaluation is described in Example 1. Key Secondary Efficacy Evaluation (Clinician-completed): The key secondary efficacy evaluation (clinician-completed) is described in Example 1. Key Secondary Efficacy Evaluation (Patient-reported Outcome): The key secondary efficacy evaluation (patient-reported outcome) is described in Example 1. Primary Endpoint: The primary efficacy endpoint is described in Example 1. Primary Endpoint Results: The primary endpoint results are the same as described in Example 1. See, Table 34 and FIG. 19.
As specified in the SAP, the weighted combination test was the primary analysis for the primary efficacy endpoint since an interim analysis for sample size re-estimation was conducted. A post-hoc analysis using an unweighted MMRM analysis (essentially disregarding the interim analysis) was performed and the one-sided p-value was 0.018 using this approach. The post-hoc one-sided p-value was 0.017 using the unweighted ANCOVA analysis.
Response (≥50% improvement from baseline in the MADRS total score) and Remission (MADRS total score is ≤12) rates are presented in Table 35.
For the clinician-rated assessments, MADRS was administered at baseline and days 8, 15, 22 and 28. MADRS scores were obtained remotely by telephone by independent raters blinded to subject's treatment response. Similarly, the Clinical Global Impressions-Severity (CGI-S) scale was administered at baseline; days 4, 8, 11, 15, 18, 22, 25; and at the 4-week double-blind end point.
For the MADRS, PHQ-9, and SDS total scores, the test for treatment effect was based on mixed model for repeated measures (MMRM) on observed case data with change from baseline as the response variable and the fixed effect model terms for treatment (ESK+AD, AD+PBO), day, class of oral AD (SNRI or SSRI), and treatment-by-day, and baseline value as a covariate. […]
Efficacy was determined by measuring MADRS total scores, SDS scores, PHQ-9 scores and CGI-S scores. […]

For data set [2], the system named is elderly subjects with TRD. The conditions noted are these: human, in vivo, other: intranasal. The source says:
The Modified Observer's Assessment of Alertness/Sedation (MOAA/S) was used to measure treatment-emergent sedation with correlation to levels of sedation defined by the American Society of Anesthesiologists (ASA) continuum. The MOAA/S scores range from 0 (No response to painful stimulus; corresponds to ASA continuum for general anesthesia) to 5 (Readily responds to name spoken in normal tone [awake]; corresponds to ASA continuum for minimal sedation). The proportion of subjects with sedation was <4% for the esketamine group for each dosing day.

As to `CN[C@]1(c2ccccc2Cl)CCCCC1=O` [esketamine, (S)-2-(2-chlorophenyl)-2-(methylamino)cyclohexanone], the “MADRS total score: difference in LS mean change (SE), MMRM” value in data set [1] (Day 28, subjects aged 65-74) is recorded as −4.9 (2.04); in data set [1] (Day 28, subjects aged 75 and above), −0.4 (5.02). Further, the “MADRS total score: LS mean (SE) treatment difference” value in data set [1] (Stage 1 (enrolled before interim analysis)) is listed as −1.6 (2.62); in data set [1] (Stage 2 (enrolled after interim analysis)), −5.6 (2.63). Moreover, the “Proportion of subjects with sedation (post dose MOAA/S score ≤3)” value in data set [2] was below 4%.
